From patent US20230219957A1, “SMALL MOLECULE CB002-ANALOGES RESTORE THE P53 PATHWAY AND TARGET S-PHASE CHECKPOINT” (Brown University, priority 2020, published 2023) come the findings set out here.

One test relates to SW480 colon cancer cells. Briefly: Label-free quantitative proteomic analysis. Conditions: twenty-four hours. Type of test: cell-based, human. How it is done: Proteomic analysis. SW480 cells were seeded at a density of 1×10^6 in 10 cm dishes and treated with dimethyl sulfoxide vehicle control or CB002-analog #4 for twenty-four hours. Floating cells were collected. Adherent cells were trypsinized. Cells were spun down and washed with phosphate-buffered saline. The pelleted cells were frozen and submitted for LC-MS/MS identification and comparative analysis at the Center for Cancer Research Development, Proteomics Core Facility at the Rhode Island Hospital. Samples (cell pellets) were lysed with a lysis buffer (8M urea, 1 mM sodium orthovanadate, 20 mM HEPES, 2.5 mM sodium pyrophosphate, 1 mM β-glycerophosphate, pH 8.0, twenty minutes, 4° C.) followed by sonication at 40% amplification by using a microtip sonicator (QSonica, LLC, Model no. Q55) and cleared by centrifugation (14,000×g, fifteen minutes, 15° C.). Protein concentration was measured (Pierce BCA Protein Assay, Thermo Fisher Scientific, Waltham, Mass., USA). A total of 100 μg of protein per sample was subjected to trypsin digestion. Tryptic peptides were desalted using C18 Sep-Pak plus cartridges (Waters, Milford, Mass., USA) and were lyophilized for forty-eight hours to dryness. […]
Sample preparation for LC-MS/MS analysis. […] Protein concentration was measured (Pierce BCA Protein Assay, Thermo Fisher Scientific) and 100 μg of protein per sample was subjected for trypsin digestion. […]

Test [1] concerns human SW480 colorectal cancer cells. Put plainly: Tumor xenograft efficacy in NSG mice. The test is classed as in vivo. The note with it: 50 mg/kg oral gavage three times per week, 5-weeks of treatment. How it is done: Drug efficacy using in vivo tumor xenografts. In vivo drug efficacy studies were performed on ten NSG female randomized mice per cohort. The mice had tested negative for any pathogen. Tumor inoculation was induced by subcutaneous injection in the left and right dorsal flank, each with a 150 μL suspension of 1-5×10^6 human colon cancer cells in phosphate-buffered saline with Matrigel (1:1). After tumor size reached 100 mm^3, mice were treated 3×/week with dimethyl sulfoxide vehicle or CB002-analog #4 via oral gavage (22-gauge needle) in a solution of 10% dimethyl sulfoxide, 20% Kolliphor® EL (Sigma cat. no. C5135), and 70% phosphate-buffered saline. Mouse weight and tumor measurements were recorded one-two times per week. Tumor volume was calculated as V=0.5*L*W^2, where L is length and W is the width of the tumor. At the end of the assay, mice were euthanized by CO2. All in vivo procedures were performed according to an approved Institutional Animal Care and Use Committee (IACUC) protocol.

For `Cn1c(=O)c2[nH]c(Nc3cccc(C(F)(F)F)c3)nc2n(C)c1=O` [CB002-analog #4], the “CDK4, CKS1B, ERCC6L, MAPK3, and MAX protein abundance” value in the test with SW480 colon cancer cells is on record as “decreased”. In test [1], the tumor volume result was “lower tumor volume than vehicle control”.
